Assay results from paper PMC8619434 (Viruses, 2021).
Structures can show the parent of a compound that is named as a salt.

How the values were obtained:
in vitro = details: human
[1] = tested on: SARS-CoV-2 spike protein pseudovirus; experiment: microbe, parasite or virus in culture; type: cell-based; details: for activity at 10 µM: 293T/ACE2, 48 h, read-out: % Infectivity of SARS-2-Spike pv; for IC50: 293T/ACE2, read-out: IC50 of SARS-CoV-2-S pseudovirus infectivity
VSV-G pseudovirus = experiment: microbe, parasite or virus in culture; type: cell-based, vesicular stomatitis virus; details: for activity at 10 µM: Pseudovirus, 293T/ACE2, read-out: % Infectivity of VSV-G pv

Row | Compound | viability at 10 µM (in vitro) [%] | activity at 10 µM [1] [%] | activity at 10 µM (VSV-G pseudovirus) [%] | other results
1 | CN1CCN2c3ncccc3Cc3ccccc3C2C1 (stereo not drawn) [Mirtazapine] | 104 |  |  | 
2 | CN1CCCC(n2nc(Cc3ccc(Cl)cc3)c3ccccc3c2=O)CC1 (stereo not drawn) [azelastine HCl] |  | 4 | 81 | IC50 [1]: 4.84 µM; viability (in vitro; % Viability of SARS-2-Spike pv): 98%
3 | O=C(c1ccc(OCCN2CCCCC2)cc1)c1c(-c2ccc(O)cc2)sc2cc(O)ccc12 [raloxifene HCl] |  | 5 | 65 | IC50 [1]: 5.76 µM; viability (in vitro; % Viability of SARS-2-Spike pv): 92%
4 | COc1c2occc2cc2ccc(=O)oc12 [8-methoxypsoralen] | 105 |  |  | 
5 | NCCc1c[nH]c2ccc(O)cc12 [serotonin] |  |  |  | % Infectivity of SARS-2-Spike pv [1]: did not enhance infectivity
6 | CN1CCC(=C2c3ccccc3CC(=O)c3sccc32)CC1 [Ketotifen Fumarate] | 97 |  |  | 
7 | CC(C)COc1ccc(CNC(=O)N(Cc2ccc(F)cc2)C2CCN(C)CC2)cc1 [pimavanserin] |  | 3 | 72 | viability (in vitro; % Viability of SARS-2-Spike pv): 70%
8 | CCc1cccc2c3c([nH]c12)C(CC)(CC(=O)O)OCC3 (stereo not drawn) [Etodolac] | 100 |  |  | 
9 | Cc1cc2c(s1)Nc1ccccc1N=C2N1CCN(C)CC1 [Olanzapine] | 106 |  |  | 
10 | C[C@]12CC[C@@H]3c4ccc(O)cc4CC[C@H]3[C@@H]1C[C@@H](O)[C@@H]2O [estriol] |  |  |  | % Infectivity of SARS-2-Spike pv [1]: did not enhance infectivity
11 | CCOC(=O)c1ccc(C#Cc2ccc3c(c2)C(C)(C)CCS3)nc1 [tazarotene] |  | 225 | 102 | viability (in vitro; % Viability of SARS-2-Spike pv): 107%
12 | CN(C)CCCN1c2ccccc2CCc2ccc(Cl)cc21 [clomipramine HCl] |  | 9 | 78 | viability (in vitro; % Viability of SARS-2-Spike pv): 115%
13 | CN1CCN(C2=Nc3ccccc3Oc3ccc(Cl)cc32)CC1 [Loxapine Succinate] | 94 |  |  | 
14 | CN1CCC(OC(c2ccccc2)c2ccccc2)CC1 [diphenylpyraline HCl] |  | 15 | 108 | viability (in vitro; % Viability of SARS-2-Spike pv): 106%
15 | NC(=O)N1c2ccccc2C=Cc2ccccc21 [Carbamazepine] | 105 |  |  | 
16 | Clc1ccc2c(c1)CCc1cccnc1C2=C1CCNCC1 [desloratadine] |  |  | 82 | viability (in vitro; % Viability of SARS-2-Spike pv): 99%
17 | c1cn2cc(-c3ccc4cn[nH]c4c3)nc(Nc3ccc(N4CCOCC4)cc3)c2n1 [GS-9973] |  | 0 | 1 | viability (in vitro): 69%
18 | CC(=O)O[C@H]1Cc2ccccc2N(C(N)=O)c2ccccc21 [Eslicarbazepine acetate] | 102 |  |  | 
19 | NC1=NCC2c3ccccc3Cc3ccccc3N12 (stereo not drawn) [Epinastine HCl] |  |  |  | viability at 10 µM (in vitro; % viability (Table S3)): 94%
20 | Clc1ccc2c(c1)C(N1CCNCC1)=Nc1ccccc1O2 [amoxapine] |  | 20 | 95 | viability (in vitro; % Viability of SARS-2-Spike pv): 103%
21 | OCCOCCN1CCN(C2=Nc3ccccc3Sc3ccccc32)CC1 [Quetiapine Fumarate] |  |  |  | viability at 10 µM (in vitro; % viability (Table S3)): 96%
22 | COc1c2ccoc2cc2oc(=O)ccc12 [5-methoxypsoralen] | 111 |  |  | 

Row | Compound | viability at 10 µM (in vitro) [%] | activity at 10 µM [1] [%] | activity at 10 µM (VSV-G pseudovirus) [%] | other results
23 | CN1CCCCC1CCN1c2ccccc2Sc2ccc([S+](C)[O-])cc21 (stereo not drawn) [Mesoridazine besylate] |  |  |  | viability at 10 µM (in vitro; % viability (Table S3)): 97%
24 | CCOC(=O)c1ncn2c1CN(C)C(=O)c1cc(F)ccc1-2 [flumazenil] | 104 |  |  | 
25 | CCc1cnn2c(NCc3ccc[n+]([O-])c3)cc(N3CCCC[C@H]3CCO)nc12 [dinaciclib] |  | 0 | 1 | viability (in vitro; % Viability of SARS-2-Spike pv): 55%
26 | CC/C(=C(\c1ccccc1)c1ccc(OCCN(C)C)cc1)c1ccccc1 [tamoxifen citrate] |  | 10 | 81 | viability (in vitro; % Viability of SARS-2-Spike pv): 107%
27 | CCOC(=O)c1c(CSc2ccccc2)n(C)c2cc(Br)c(O)c(CN(C)C)c12 [Arbidol] |  | 18 | 62 | 
28 | CC(=O)c1c(C)c2cnc(Nc3ccc(N4CCNCC4)cn3)nc2n(C2CCCC2)c1=O [palbociclib isethionate] |  |  | 32 | 
29 | COc1ccc2cc1Oc1ccc(cc1)C[C@H]1c3c(cc4c(c3Oc3cc5c(cc3OC)CCN(C)[C@@H]5C2)OCO4)CCN1C [cepharanthine] |  | 1 | 1 | 
30 | c1ccc2c(c1)sc1ccccc12 [Dibenzothiophene] | 102 |  |  | 
31 | O=C1c2c(O)cccc2C([C@@H]2O[C@H](CO)[C@@H](O)[C@H](O)[C@H]2O)c2cc(CO)cc(O)c21 (stereo partly drawn) [Aloin] | 103 |  |  | 
32 | Cc1cc(Nc2cc(CN3CCOCC3)c3nc(C)c(Cc4ccc(Cl)cc4F)n3n2)n[nH]1 [LY2784544] |  | 2 | 1 | viability (in vitro; % Viability of SARS-2-Spike pv): 76%
33 | CN1CCC(=C2c3ccccc3CCn3c(C=O)cnc32)CC1 [Alcaftadine] | 97 |  |  | 
34 | CC1CCC2(OC1)OC1CC3C4CCC5CC(OC6OC(CO)C(O)C(O)C6OC6OC(CO)C(O)C(O)C6O)CCC5(C)C4CCC3(C)C1C2C (stereo not drawn) [Timosaponin A3] |  | 5 | 85 | viability (in vitro; % Viability of SARS-2-Spike pv): 55%
35 | O=C(O[C@H]1CN2CCC1CC2)N1CCc2ccccc2[C@@H]1c1ccccc1 [solifenacin succinate] |  | 12 | 86 | viability (in vitro): 99%
36 | CN1CCN(C2=Nc3cc(Cl)ccc3Nc3ccccc32)CC1 [Clozapine] | 103 |  |  | 
37 | C[C@]12CC[C@@H]3c4ccc(O)cc4CC[C@H]3[C@@H]1CC[C@@H]2O [estradiol] |  |  |  | % Infectivity of SARS-2-Spike pv [1]: did not enhance infectivity
38 | CC(=O)[C@H]1CC[C@H]2[C@@H]3CCC4=CC(=O)CC[C@]4(C)[C@H]3CC[C@]12C [progesterone] |  |  |  | % Infectivity of SARS-2-Spike pv [1]: did not enhance infectivity
39 | CC(=O)OCC[N+](C)(C)C [acetylcholine] |  |  |  | % Infectivity of SARS-2-Spike pv [1]: did not enhance infectivity
40 | COc1cc2c(Oc3ccc(NC(=O)C4(C(=O)Nc5ccc(F)cc5)CC4)cc3F)ccnc2cc1OCCCN1CCOCC1 [Foretinib (GSK1363089), Foretinib] |  | 10 | 11 | viability (in vitro; % Viability of SARS-2-Spike pv): 63%
41 | C=C1C(=O)[C@]23[C@H](O)[C@H]1CC[C@H]2[C@@]12CO[C@]3(O)[C@@H](O)[C@@H]1C(C)(C)CC[C@@H]2O [oridonin] |  | 9 | 37 | 
42 | CN1CCC(=C2c3ccccc3C=Cc3ccccc32)CC1 [cyproheptadine HCl] |  | 17 | 92 | viability (in vitro; % Viability of SARS-2-Spike pv): 94%
43 | CN(C)CCCN1c2ccccc2CCc2ccccc21 [imipramine] |  | 16 | 84 | viability (in vitro; % Viability of SARS-2-Spike pv): 99%
44 | NCCc1c[nH]cn1 [histamine] |  |  |  | % Infectivity of SARS-2-Spike pv [1]: did not enhance infectivity

Row | Compound | viability at 10 µM (in vitro) [%] | activity at 10 µM [1] [%] | activity at 10 µM (VSV-G pseudovirus) [%] | other results
45 | CN(C)CC/C=C1/c2ccccc2COc2ccc(CC(=O)O)cc21 [Olopatadine HCl] | 99 |  |  | 
46 | COc1ccccc1OCCNCC(O)COc1cccc2[nH]c3ccccc3c12 (stereo not drawn) [Carvedilol] | 81 |  |  | 
47 | COc1cc2c(cc1OC)CN(CCc1ccc(NC(=O)c3cccc4c(=O)c5cccc(OC)c5[nH]c34)cc1)CC2 [elacridar] | 97 |  |  | 
48 | NC(=O)N1CCC(CC(=O)N2CCC([C@H]3c4ncc(Br)cc4CCc4cc(Cl)cc(Br)c43)CC2)CC1 [lonafarnib] | 111 |  |  | 
49 | C[C@]12CCC(=O)C=C1[C@@H]1C[C@@H]1[C@H]1[C@@H]3[C@@H]4C[C@@H]4[C@@]4(CCC(=O)O4)[C@@]3(C)CC[C@@H]12 [Drospirenone] |  |  | 381 | 
50 | Cc1cn([C@H]2C[C@H](N=[N+]=[N-])[C@@H](CO)O2)c(=O)[nH]c1=O [zidovudine] |  |  |  | % Infectivity of VSV-G pv (VSV-G pseudovirus): potently inhibited
51 | COc1cc2c(Oc3ccc4[nH]c(C)cc4c3F)ncnc2cc1OCCCN1CCCC1 [cediranib (AZD217), cediranib] |  | 5 | 42 | viability (in vitro; % Viability of SARS-2-Spike pv): 85%
52 | CC(C(=O)O)c1ccc2c(c1)Cc1cccnc1O2 (stereo not drawn) [Pranoprofen] | 114 |  |  | 
53 | Cc1ccnc2c1NC(=O)c1cccnc1N2C1CC1 [Nevirapine] | 103 |  |  | 
54 | CC(C)/N=c1\cc2n(-c3ccc(Cl)cc3)c3ccccc3nc-2cc1Nc1ccc(Cl)cc1 [Clofazimine] | 77 |  |  | 
55 | NC(=O)N1c2ccccc2CC(=O)c2ccccc21 [Oxcarbazepine] | 109 |  |  | 
56 | CC(CN1c2ccccc2Sc2ccccc21)N(C)C (stereo not drawn) [promethazine HCl] |  | 11 | 107 | viability (in vitro; % Viability of SARS-2-Spike pv): 99%
57 | COc1cc(Nc2ncc3c(n2)-c2ccc(Cl)cc2C(c2c(F)cccc2OC)=NC3)ccc1C(=O)O [MLN8237 (Alisertib), Alisertib] | 63 | 15 to 18 | 18 | viability (in vitro; % Viability of SARS-2-Spike pv): 63 to 83%
58 | CC(C(=O)O)c1ccc2c(c1)[nH]c1ccc(Cl)cc12 (stereo not drawn) [Carprofen] | 103 |  |  | 
59 | Nc1c2c(nc3ccccc13)CCCC2 [Tacrine hydrochloride] |  |  |  | viability at 10 µM (in vitro; % viability (Table S3)): 97%
60 | CNC(=O)c1ccccc1Sc1ccc2c(/C=C/c3ccccn3)n[nH]c2c1 [Axitinib (AG 013736), Axitinib] |  | 1 | 2 | viability (in vitro; % Viability of SARS-2-Spike pv): 69%
61 | CC(=O)Oc1cccc2c1C(=O)c1c(OC(C)=O)cc(C(=O)O)cc1C2=O [Diacerein] | 126 |  |  | 
62 | C=C1CC[C@H]2C(=C)CC[C@H]3C(=C)C(=O)O[C@@H]3[C@@H]12 [Dehydrocostus Lactone] | 90 |  |  | 
63 | CCC(=O)NCC[C@@H]1CCc2ccc3c(c21)CCO3 [Ramelteon] | 99 |  |  | 
64 | COc1ccc2cc1Oc1ccc(cc1)C[C@H]1c3cc(c(OC)cc3CCN1C)Oc1c(OC)c(OC)cc3c1[C@H](C2)N(C)CC3 [tetrandrine] |  | 1 | 39 | 
65 | CC(=O)c1c(C)c2cnc(Nc3ccc(N4CCNCC4)cn3)nc2n(C2CCCC2)c1=O.Cl [palbociclib HCl] |  |  |  | % Infectivity of VSV-G pv (VSV-G pseudovirus): 63%
66 | CN1CCN2c3ccccc3Cc3ccccc3C2C1 (stereo not drawn) [mianserin Hcl] | 100 |  |  | 
